The record followed here is patent US5922891A, “2-substituted 1,8-dihydroxy-9(10H)-anthracenone pharmaceuticals” (priority 1997, dated 1999).

pIC50: −log10 of the molar value. Read-outs that look alike come from different tables or passages of the source.

The test system of one data set is HaCaT cells. The data set is described as follows: Antiproliferative activity against HaCaT cells (human keratinocyte cell line). The note with it: 48 h, read-out: AA IC50 (antiproliferative activity). The class given is cell-based. As to the method: HaCaT cells were grown in Dulbecco's modified Eagle's medium (DMEM, No. 041-11954A, Gibco) supplemented with 10% fetal calf serum, penicillin (100 U/mL), and streptomycin (100 μg/mL) in a humidified incubator containing 8% CO2 at 37° C. Cells (2.5·10^4 /1.1 ml per well) were seeded on 24-well multidishes and grown in DMEM. After 24 hours of growth, the medium was replaced with fresh medium and a test compound (0.1-5 μM) was added from freshly made stock solutions, which were prepared in DMSO and diluted with DMEM. The final concentration of DMSO in the culture medium was 0.2%. Controls were performed using DMSO or medium alone. Forty-eight hours after addition of a test compound to the culture, the medium was removed and each well was rinsed with phosphate-buffered saline (PBS, 100 μL). The cells were then incubated with sterile 0.5% trypsin, 0.2% EDTA in PBS for 20 minutes at 37° C. The detached cells from each well were suspended in DMEM and dispersed as single cells by gentle pipetting through an Eppendorf pipette. Cell growth was determined directly by counting the keratinocytes on a Neubauer counting chamber using phase contrast microscopy. Inhibition of cell proliferation was calculated by a comparison of the mean value of the test compound (N=3) with the control (N=6-8) activity: (1-test compound/control)×100.

The nature of data set [1]: Deoxyribose degradation as a measure of hydroxyl radical formation. The format is biochemical. The note with it: 75 μM test compound; controls < 0.1. As to the method:
^c Deoxyribose degradation as a measure of hydroxyl radical formation
Indicated values are μmoles of malondialdehyde per mmole of deoxyribos
released by 75 μM test compound (controls < 0.1).
Degradation of deoxyribose provides a measurement of the amount of hydroxyl radical formation caused by the test compounds. The assay used to determine degradation of 2-deoxy-D-ribose followed generally the procedures of Gutteridge, J. M. C., Biochem. J., 224: 761-767 (1984) and Laughton, et al., Biochem. Pharmacol., 38: 2859-2865 (1989). The following reagents were added to glass tubes in the order and at the final concentrations listed. 0.3 mL kH2 PO4 --KOH buffer, pH 7.4 (30 mM), 0.2 ml double distilled H2 O, 0.2 ml 2-deoxy-D-ribose (2 mM), 0.2 ml FeCl3.6H2 O (0.1 mM), 0.1 ml 2-substituted anthracenone ([…]). Stock solutions of each of the 2-substituted anthracenone compounds were made up fresh before use. Appropriate blanks and controls using an acetronitrile vehicle were performed.
Final reaction volumes were standardized to 1.0 ml. The reaction mixtures were incubated for 2 hours at 37° C. in a shaking water bath at 50 rpm. 1 ml of 2.8% (w/v) trichloracetic acid and 1 ml of 1% (w/v in 0.05 N NaOH) 2-thiobarbituric acid (TBA) were added, and the samples were heated at 100° C. for 15 minutes and then cooled in an ice bath (5 minutes). 2 ml of each reaction mixture was treated with 0.05 ml of 36% (w/v) HCl and 2 of 1-butanol, followed by vigorous shaking with a vortex mixer (Heidolph) for 15 seconds. The organic layer was separated by centrifugation at 3000 rpm (15 minutes) and absorbance at 532 nm was measured against butanol. Calibration was performed using a malondialdehyde (MDA) standard prepared by hydrolysis of 1,1,3,3-tetraethoxypropane (Gutteridge, J. M. C., Anal. Biochem., 69: 518-526 (1975). TBA reactive material was expressed in terms of μmol MDA per μmol deoxyribose. The results of the assay are provided in Table I.

Data set [2] in a line: Inhibition of AAPH-induced lipid peroxidation in bovine brain phospholipid liposomes. The note with it: AAPH-induced; bovine brain phospholipid liposomes; N = 3 or more; read-out: LPO IC50 (inhibition of lipid peroxidation). The class given is biochemical. On the procedure: Phospholipids were prepared essentially as described by Gutteridge, J. M. C., (Anal. Biochem., 82: 76-82 (1977)). Bovine brain tissue was cooled on ice, freed from blood vessels and washed repeatedly with 0.15 M NaCl, pH 7.4. The tissue was cut into pieces and then macerated with an ultra-turrax, passed through a fine-meshed sieve, and extracted four times with four times the volume of acetone. The extraction mixture was filtered by suction to remove the acetone, the residue dried under vacuum, and then repeatedly extracted with petroleum ether (40-60) using twice the volume of the original brain homogenate. The combined extracts were filtered, dried at 45° C., and dissolved in ether (one fifth the original brain volume). The mixture was treated with five times the volume of acetone, and the resulting precipitate was collected by suction-filtration, dried and stored under N2 at -20° C. in the dark. Bovine brain phospholipids were weighed into glass tubes and shaken in a vortex mixer (Heidolph) in the presence of five small glass beads (.phi. 4 mm) for 1 minute. The phospholipids were suspended in 0.15 M NaCl, pH 7.4, to a final concentration of 5 mg/ml. The mixture was purged with N2 for 1 minute and vigorously dispersed in a vortex mixer for 5 minutes. The liposomes were allowed to swell for 1 hour at 4° C., and vesicles with a mean size of 1-10 μm were obtained according to the method of Bangham, et al., (J. Mol. Biol., 13:238-252 (1965). The liposomes were stimulated with the azo initiator 2 2'-azobis (2-amidinopropane) hydrochloride according to the method of Gutteridge, J. M. C., (Anal. Biochem. 82:76-82 (1977)).
The following reagents were added to the glass tubes containing stimulating bovine brain phospholipid piposomes in the order and at the final concentrations listed: 0.3 ml HK2 PO4 --KOH buffer, pH 7.4 (30 mM), 0.29 ml double distilled H2 O, 0.2 ml liposomes (1 mg/ml), 0.2 ml FeCl3.H2 O (0.1 mM), 0.01 ml 2-substituted anthracenone compound of the invention (variable concentrations).
Appropriate blanks and controls using the vehicle (acetone) were conducted. The final reaction volumes were standardized to 1.0 ml. The reaction mixtures were incubated for 1 hour at 37° C. in a shaking water bath. […] of 20% (w/v) BHT, 0.5 ml 25% (w/v) HCl and 0.5 ml of 1% 2-thiobarbituric acid were added and the samples were heated at 100° C. for 15 minutes and then cooled in an ice bath (5 minutes). 2 ml of 1-butanol were added and the mixtures were vigorously shaken in a vortex mixer (Heidolph) for 15 seconds. The organic layer was separated by centrifugation at 3000 rpm (15 minutes) and absorbance at 532 nm was measured against butanol.

Another data set has as its target T1, 5-LO in bovine PMNL (Bos taurus, UniProt F1MQ78).
T1 construct: The purified PMNLs were suspended at a concentration of; endogenous in cells; host or cells: polymorphonuclear leukocytes isolated from bovine blood
T1 sequence (F1MQ78 1-674): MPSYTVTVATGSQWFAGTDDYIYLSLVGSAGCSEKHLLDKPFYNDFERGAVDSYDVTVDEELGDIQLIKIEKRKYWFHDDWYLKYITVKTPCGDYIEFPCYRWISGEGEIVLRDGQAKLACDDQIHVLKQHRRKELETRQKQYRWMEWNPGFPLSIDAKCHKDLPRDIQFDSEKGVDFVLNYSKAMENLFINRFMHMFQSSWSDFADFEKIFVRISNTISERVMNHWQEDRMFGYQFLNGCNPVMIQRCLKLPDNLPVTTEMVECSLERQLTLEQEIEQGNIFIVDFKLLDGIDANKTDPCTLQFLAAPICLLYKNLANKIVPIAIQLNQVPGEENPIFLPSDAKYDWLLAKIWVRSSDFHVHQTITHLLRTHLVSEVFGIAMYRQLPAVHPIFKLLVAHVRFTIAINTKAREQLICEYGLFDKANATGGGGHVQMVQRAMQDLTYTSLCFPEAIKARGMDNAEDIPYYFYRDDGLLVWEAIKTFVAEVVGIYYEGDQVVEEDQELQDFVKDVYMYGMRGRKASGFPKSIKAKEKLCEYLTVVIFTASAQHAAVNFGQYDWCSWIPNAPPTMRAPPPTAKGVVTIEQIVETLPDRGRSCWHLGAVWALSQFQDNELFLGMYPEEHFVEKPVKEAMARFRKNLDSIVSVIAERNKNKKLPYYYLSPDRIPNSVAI
Briefly: Inhibition of 5-lipoxygenase (5-HETE and LTB4 biosynthesis) in Ca-ionophore-stimulated bovine PMNL. The format is cell-based. On the procedure:
Briefly, PMNLs were prepared from sodium EDTA-anticoagulated bovine blood, essentially as described by Walstra, P. et al., (Biochem. Biophys. Acta, 795:499-503 (1984)). Contaminating platelets were removed by repeated centrifugations at 100 g for 20 minutes. […] Cell counts were conducted with a Sysmex micro cell counter CC-130. Preincubation was performed with 2.4 ml of the suspension and 10 μl of a DMSO stock solution of test compounds at the desired concentrations in phosphate buffered saline (PBS) or vehicle control (DMSO at final concentration of 0.4%) for 15 minutes at 37° C. in a shaking water bath at 50 rpm. […] The incubation mixture was held on ice bath for 20 minutes and then centrifuged at 4000 g for 5 minutes at 0° C. The supernatant was diluted with 5 ml of water and passed through a prewashed (10 ml of methanol and 5 ml of water, sequentially) octadecylsilane reversed phase cartridge (Baker). The eicosanoids were eluted with 3 ml of methanol, diluted with 3 ml of water and subjected to reversed phase HPLC analysis using a 250×4 mm column packed with Nucleosil C18 (7 μm particles; Bischoff, Leonberg, Germany). The isocratic elution conditions of LTB4 were tetrahydrofuran (THF)/methanol/water/acetic acid (25+30+45+0.1), adjusted to pH 5.5 with concentrated NH3, at a flow rate of 0.9 ml/min (Kontron 420 pump), monitored at 280 nm with a Kontron 735 LC UV detector. 5-HETE was monitored at 232 nm using methanol/water/acetic acid (77+23+0.1), pH 5.5 and a flow rate 1.0 ml/min. Data were recorded on a MacLab data acquisition system (WissTech, Germany) and analysis was performed using the application Peaks on an Apple Macintosh Quadra 700 computer. Integrated areas of the peaks were compared to a PGB2 internal standard and to external standards of authentic samples. Molar absorption coefficients of Samuelsson et al., Borgeat, P. and B. Samuelsson, (Proc. Natl. Acad. Sci. USA, 76:2148-2152 (1979)), were used for making calculations. Inhibition was calculated by a comparison of the mean value of test compound (n=3) with control (n=6-8) activity: (1-test compound/control)×100.
See Walstra, P. et al., Biochem Biophys. Acta, 795:499-503 (1984); and Dannhardt et al. J. Pharm. Pharmacol., 44:419-424 (1992). […] (Schroder, J. M., J. Invest. Dermatol., 87:624-629 (1986); Tanzer, et al., Arch. Pharm. (Weinheim), 324:841-846 (1991)).

By pIC50 is commonly meant −log10 of the IC50, conventionally taken in molar units. As for `CN(O)C(=O)Cc1ccc2c(c1O)C(=O)c1c(O)cccc1C2` [ID, N-Hydroxy-N-methyl-(9,10-dihydro-1,8-dihydroxy-9-oxo-2-anthracene)acetamide], the pIC50 is 6.10 in the data set with HaCaT cells and 4.54 in data set [2]. In addition, in data set [1], the “DD (deoxyribose degradation, malondialdehyde released)” value (“DD” for short) is 1.67 ± 0.08 μmol of MDA/mmol.

As for `O=C(O)CCCCc1ccc2c(c1O)C(=O)c1c(O)cccc1C2` [IVA, 5-(9,10-Dihydro-1,8-dihydroxy-9-oxo-2-anthracene) pentanoic acid], the values for the pIC50 (in the data set on HaCaT cells; in data set [2]) were below 5.30 and 3.98, respectively. The “DD” value in data set [1] is on record as 2.62 ± 0.41 μmol of MDA/mmol.

For the compound `O=C(CCCCc1ccc2c(c1O)C(=O)c1c(O)cccc1C2)NO` [IVC, N-Hydroxy-5-(9,10-dihydro-1,8-dihydroxy-9-oxo-2-anthracene)pentanamide], the values for the negative-log IC50 (pIC50) (with HaCaT cells; in data set [2]) were 5.70 and 4.21, respectively. Moreover, in data set [1], the “DD” value is given as 1.38 ± 0.09 μmol of MDA/mmol.

For the compound `CN(O)C(=O)CCCCc1ccc2c(c1O)C(=O)c1c(O)cccc1C2` [IVD, N-Hydroxy-N-methyl-5-(9,10-dihydro-1,8-dihydroxy-9-oxo-2-anthracene)pentanamide], the “DD” value in data set [1] was 1.36 ± 0.05 μmol of MDA/mmol. Besides, the pIC50 in data set [2] was 4.80.

Regarding `CN(O)C(=O)CCCCCc1ccc2c(c1O)C(=O)c1c(O)cccc1C2` [VD, N-Hydroxy-N-methyl-6-(9,10-dihydro-1,8-dihydroxy-9-oxo-2-anthracene)hexanamide], the pIC50 with HaCaT cells was 6.05; in data set [2] it was 4.82.

On to `CC(C)C(C(=O)O)c1ccc2c(c1O)C(=O)c1c(O)cccc1C2` (centres unmarked) [VIIIA, 2-(9,10-Dihydro-1,8-dihydroxy-9-oxo-2-anthracene)-3-methylbutanoic acid], for which the pIC50 with HaCaT cells is below 5.30; in data set [2], 3.81. The “DD” value in data set [1] is 3.58 ± 0.30 μmol of MDA/mmol.

Consider `CC(C)C(C(=O)N(C)O)c1ccc2c(c1O)C(=O)c1c(O)cccc1C2` (centres unmarked) [VIIID, N-Hydroxy-N-methyl-2-(9,10-dihydro-1,8-dihydroxy-9-oxo-2-anthracene)-3-methylbutanamide], for which the pIC50 with HaCaT cells was 5.82; in data set [2], 4.90. Also, the “DD” value in data set [1] is given as 0.86 ± 0.01 μmol of MDA/mmol.

Consider `O=C1c2c(O)cccc2Cc2ccc(C(CCc3ccccc3)C(=O)O)c(O)c21` (centres unmarked) [XA, 2-(9,10-Dihydro-1,8-dihydroxy-9-oxo-2-anthracene)-4-phenylbutanoic acid], for which the pIC50 with HaCaT cells is below 5.30; in data set [2] it was 4.21. The “DD” value in data set [1] is recorded as 2.47 ± 0.16 μmol of MDA/mmol.

Regarding `CCCCOc1ccc(CC(=O)NO)cc1` [bufexamac, reference compound], the negative logarithm of the IC50 (pIC50) on 5-LO in bovine PMNL (N = 3 or more) was below 4.52; on 5-LO in bovine PMNL (comparison with compounds of the invention, read-out: IC50), below 4.52; with HaCaT cells it was below 5.30; in data set [2] it was below 3.70.
